From ChEMBL document CHEMBL4613308, “Screen of Unfocused Libraries Identified Compounds with Direct or Synergistic Antibacterial Activity” (ACS Med Chem Lett, 2020)
In brackets after ≈: the same amount, converted by molar mass. Values belong to the molecule of their own block, whether it stands above or below them.

Experiments:
[1] = tested on: Acinetobacter baumannii; test: Antibacterial activity against Acinetobacter baumannii ATCC 17978 assessed as bacterial growth inhibition by agar diffusion assay; type: functional
[2] = tested on: Pseudomonas aeruginosa; test: Antibacterial activity against Pseudomonas aeruginosa ATCC 27853 assessed as bacterial growth inhibition by agar diffusion assay; type: functional
[3] = tested on: Acinetobacter baumannii; test: Synergistic antibacterial activity against Acinetobacter baumannii ATCC 17978 in presence of 0.5 times MIC of colistin by microdilution broth method; type: functional
[4] = tested on: Escherichia coli; test: Antibacterial activity against Escherichia coli CCUG assessed as bacterial growth inhibition by agar diffusion assay; type: functional
[5] = tested on: Klebsiella pneumoniae; test: Synergistic antibacterial activity against Klebsiella pneumoniae ATCC 13833 in presence of 0.5 times MIC of colistin by microdilution broth method; type: functional
[6] = tested on: Klebsiella pneumoniae; test: Potentiation of colistin-induced antibacterial activity against Klebsiella pneumoniae ATCC 13833 assessed as fold reduction in colistin MIC by microdilution broth method relative to colistin MIC; type: functional
[7] = tested on: Escherichia coli; test: Synergistic antibacterial activity against Escherichia coli CCUG in presence of 0.5 times MIC of colistin by microdilution broth method; type: functional
[8] = tested on: Acinetobacter baumannii; test: Potentiation of colistin-induced antibacterial activity against Acinetobacter baumannii ATCC 17978 assessed as fold reduction in colistin MIC by microdilution broth method relative to colistin MIC; type: functional
[9] = tested on: Escherichia coli; test: Potentiation of colistin-induced antibacterial activity against Escherichia coli CCUG assessed as fold reduction in colistin MIC in by microdilution broth method relative to colistin MIC; type: functional
[10] = tested on: Klebsiella pneumoniae; test: Antibacterial activity against Klebsiella pneumoniae ATCC 13833 assessed as bacterial growth inhibition by agar diffusion assay; type: functional
[11] = tested on: Bacillus spizizenii; test: Antibacterial activity against Bacillus subtilis ATCC 6633 assessed as bacterial growth inhibition by agar diffusion assay; type: functional
[12] = tested on: Streptococcus pyogenes; test: Antibacterial activity against Streptococcus pyogenes ATCC 12344 assessed as bacterial growth inhibition by agar diffusion assay; type: functional
[13] = tested on: Staphylococcus aureus; test: Antibacterial activity against Staphylococcus aureus ATCC 25923 assessed as bacterial growth inhibition by agar diffusion assay; type: functional
[14] = tested on: Acinetobacter baumannii; test: Antibacterial activity against Acinetobacter baumannii AC-54/97 clinical isolate assessed as bacterial growth inhibition by agar diffusion assay; type: functional
[15] = tested on: Enterobacter cloacae; test: Antibacterial activity against multidrug-resistant Enterobacter cloacae VA 417/02 clinical isolate assessed as bacterial growth inhibition by agar diffusion assay; type: functional
[16] = tested on: Enterobacter cloacae; test: Antibacterial activity against multidrug-resistant Enterobacter cloacae Z19 clinical isolate assessed as bacterial growth inhibition by agar diffusion assay; type: functional
[17] = tested on: Enterococcus faecalis; test: Antibacterial activity against Enterococcus faecalis ATCC 29212 assessed as bacterial growth inhibition by agar diffusion assay; type: functional
[18] = tested on: Escherichia coli; test: Antibacterial activity against multidrug-resistant Escherichia coli Z25 clinical isolate assessed as bacterial growth inhibition by agar diffusion assay; type: functional
[19] = tested on: Pseudomonas aeruginosa; test: Antibacterial activity against multidrug-resistant Pseudomonas aeruginosa VR-143/97 clinical isolate assessed as bacterial growth inhibition by agar diffusion assay; type: functional
[20] = tested on: Escherichia coli; test: Synergistic antibacterial activity against Escherichia coli CCUG assessed as fractional inhibitory concentration index in presence of colistin by Checkerboard assay; type: functional
[21] = tested on: HeLa; test: Cytotoxicity against human HeLa cells assessed as reduction in cell viability assay by CellTox-Green assay; type: cell-based
[22] = tested on: Klebsiella pneumoniae; test: Synergistic antibacterial activity against colistin-resistant Klebsiella pneumoniae SI-081R clinical isolate in presence of 2 ug/ml colistin by microdilution broth method (reference value: 256 ug/ml); type: functional
[23] = tested on: Klebsiella pneumoniae; test: Synergistic antibacterial activity against colistin-resistant Klebsiella pneumoniae SI-004Bo clinical isolate in presence of 2 ug/ml colistin by microdilution broth method (reference value: 64 ug/ml); type: functional
[24] = tested on: Acinetobacter baumannii; test: Synergistic antibacterial activity against multidrug-resistant Acinetobacter baumannii N50 in presence of 2 ug/ml colistin by microdilution broth method; type: functional
[25] = tested on: Acinetobacter baumannii; test: Synergistic antibacterial activity against Acinetobacter baumannii ATCC 17978 assessed as fractional inhibitory concentration index in presence of colistin by Checkerboard assay; type: functional

MIC [1]: > 512 mg/L | MIC [2]: > 512 mg/L | MIC [3]: 32 mg/L | MIC [4]: > 512 mg/L | MIC [5]: 64 mg/L | MIC [7]: 32 mg/L | MIC [10]: > 512 mg/L
SMILES: CC(C)c1ccc2c(c1)c(O)c(C(C)C)c(=O)n2CC(C)(C)C
log2FC [6]: 3 | log2FC [8]: 4 | log2FC [9]: 4

MIC [1]: > 512 mg/L | MIC [2]: > 512 mg/L | MIC [3]: 64 mg/L | MIC [4]: > 512 mg/L | MIC [5]: 16 mg/L | MIC [7]: 64 mg/L | MIC [10]: > 512 mg/L
SMILES: CCOC(=O)c1c(O)nc2c(C)cccc2c1O
log2FC [6]: 5 | log2FC [8]: 3 | log2FC [9]: 3

SMILES: CC(C)(C)n1cc(C(=O)O)c(=O)c2cc(F)c(-c3ccc(F)cc3F)cc21
MIC [11]: ≤ 0.12 mg/L | MIC [1]: 8 mg/L (≈ 21.3 µM) | MIC [12]: 1 mg/L (≈ 2.66 µM) | MIC [13]: 2 mg/L (≈ 5.33 µM) | MIC [2]: 64 mg/L (≈ 171 µM) | MIC [4]: 16 mg/L (≈ 42.6 µM) | MIC [14]: > 256 mg/L | MIC [15]: 4 mg/L (≈ 10.7 µM) | MIC [16]: > 256 mg/L | MIC [17]: 2 mg/L (≈ 5.33 µM) | MIC [18]: > 256 mg/L | MIC [19]: > 256 mg/L | MIC [10]: 4 mg/L (≈ 10.7 µM)

MIC [1]: > 512 mg/L | MIC [2]: > 512 mg/L | MIC [3]: 16 mg/L | MIC [4]: > 512 mg/L | MIC [5]: 32 mg/L | MIC [7]: 64 mg/L | MIC [10]: > 512 mg/L
SMILES: Cc1c(C(=O)N(C)CCN(C)C)nn(-c2ccc(Cl)cc2)c1-n1cccc1
log2FC [6]: 4 | log2FC [8]: 5 | log2FC [9]: 3

SMILES: COc1ccc(CNC(=O)c2c(O)c3cc(-c4cccnc4)ccc3n(CCCCO)c2=O)cc1
MIC [11]: 0.12 mg/L (≈ 0.253 µM) | MIC [1]: 16 mg/L (≈ 33.8 µM) | MIC [12]: 8 mg/L (≈ 16.9 µM) | MIC [13]: 4 mg/L (≈ 8.45 µM) | MIC [2]: 256 mg/L (≈ 541 µM) | MIC [3]: 16 mg/L | MIC [4]: 64 mg/L (≈ 135 µM) | MIC [14]: > 256 mg/L | MIC [15]: 64 mg/L (≈ 135 µM) | MIC [16]: > 256 mg/L | MIC [5]: 64 mg/L | log2FC [6]: 3 | fractional inhibitory concentration index (FICI) [20]: 0.56 | MIC [17]: 16 mg/L (≈ 33.8 µM) | MIC [18]: > 256 mg/L | MIC [7]: 32 mg/L | log2FC [8]: 5 | log2FC [9]: 4 | MIC [19]: > 256 mg/L | MIC [10]: 32 mg/L (≈ 67.6 µM)

SMILES: O=C(NCc1ccc2c(c1)OCO2)c1cnn(-c2ccccc2)c1-n1cccc1
IC50 [21]: > 60 mg/L | MIC [1]: > 512 mg/L | MIC [2]: > 512 mg/L | MIC [3]: 32 mg/L | MIC [22]: > 64 mg/L | MIC [4]: > 512 mg/L | MIC [23]: > 64 mg/L | MIC [24]: 32 mg/L | MIC [5]: 64 mg/L | log2FC [6]: 3 | MIC [7]: 64 mg/L | log2FC [8]: 4 | log2FC [9]: 3 | fractional inhibitory concentration index (FICI) [25]: 0.38 | MIC [10]: > 512 mg/L

SMILES: COc1ccc(-c2cc3c(cc2F)c(=O)c(C(=O)O)cn3C(C)(C)C)cc1
MIC [11]: ≤ 0.12 mg/L | MIC [1]: 16 mg/L (≈ 43.3 µM) | MIC [12]: ≤ 0.12 mg/L | MIC [13]: 0.25 mg/L (≈ 0.677 µM) | MIC [2]: > 256 mg/L | MIC [4]: > 256 mg/L | MIC [14]: > 256 mg/L | MIC [15]: 128 mg/L (≈ 347 µM) | MIC [16]: > 256 mg/L | MIC [17]: 0.5 mg/L (≈ 1.35 µM) | MIC [18]: > 256 mg/L | MIC [19]: > 256 mg/L | MIC [10]: 16 mg/L (≈ 43.3 µM)

SMILES: CCOC(=O)c1cn2c3c(cccc3c1=O)OCC2CC (stereo unspecified)
MIC [11]: 128 mg/L (≈ 446 µM) | MIC [1]: 256 mg/L (≈ 891 µM) | MIC [12]: > 256 mg/L | MIC [13]: > 256 mg/L | MIC [2]: > 256 mg/L | MIC [4]: > 256 mg/L | MIC [14]: > 256 mg/L | MIC [15]: > 256 mg/L | MIC [16]: > 256 mg/L | MIC [17]: 256 mg/L (≈ 891 µM) | MIC [18]: > 256 mg/L | MIC [19]: > 256 mg/L | MIC [10]: 128 mg/L (≈ 446 µM)

SMILES: CCCCCc1cc(OC)cc(OCCCCCCCC(=O)NCCO)c1
IC50 [21]: > 20 mg/L | MIC [1]: > 512 mg/L | MIC [2]: > 512 mg/L | MIC [3]: 4 mg/L | MIC [22]: 18 mg/L | MIC [4]: > 512 mg/L | MIC [23]: > 64 mg/L | MIC [24]: 8 mg/L | MIC [5]: 8 mg/L | log2FC [6]: 6 | MIC [7]: 4 mg/L | log2FC [8]: 7 | log2FC [9]: 7 | MIC [10]: > 512 mg/L

SMILES: CC(C)(C)n1cc(C(=O)O)c(=O)c2cc(F)c(Br)cc21
MIC [11]: ≤ 0.12 mg/L | MIC [1]: 8 mg/L (≈ 23.4 µM) | MIC [12]: 8 mg/L (≈ 23.4 µM) | MIC [13]: 8 mg/L (≈ 23.4 µM) | MIC [2]: 32 mg/L (≈ 93.5 µM) | MIC [4]: 8 mg/L (≈ 23.4 µM) | MIC [14]: > 256 mg/L | MIC [15]: 2 mg/L (≈ 5.85 µM) | MIC [16]: > 256 mg/L | MIC [17]: 2 mg/L (≈ 5.85 µM) | MIC [18]: > 256 mg/L | MIC [19]: > 256 mg/L | MIC [10]: 1 mg/L (≈ 2.92 µM)
